Reference: US10669272B2, “Substituted naphthyridinone compounds useful as T cell activators” (BRISTOL-MYERS SQUIBB COMPANY, priority 2018, dated 2020)
Where two headings read alike, the source gives them in different places.

Tests used:
[1] = biological target: T1, human DGKα (Homo sapiens, UniProt P23743); test: DGKα LIPGLO assay (extruded liposome substrate), in vitro DGK inhibition; format: biochemical; conditions: read-out: DGKa LIPGLO IC50
T1 construct: TVMV protease cleavage site (C); Hexa-His (C); made in house; host or cells: Sf9 insect cells (baculovirus, Bac-to-Bac)

[2] = biological target: T2, human DGKζ (Homo sapiens, UniProt Q13574); test: DGKζ LIPGLO assay (extruded liposome substrate), in vitro DGK inhibition; format: biochemical; conditions: read-out: DGKz LIPGLO IC50
T2 construct: TVMV protease cleavage site (C); Hexa-His (C); made in house; host or cells: Sf9 insect cells (baculovirus, Bac-to-Bac)

[3] = test system: Human venous whole blood; test: Human whole blood IFN-γ assay; format: cell-based; conditions: human whole blood, read-out: INFg Whole Blood Normalized Agonist EC50;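 note: blood from healthy donors exposed to compound for 1 h before stimulation with anti-CD3 and anti-CD28 at 1 µg/mL each, IFN-γ quantified in supernatant by AlphaLISA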
[4] = Homo sapiens, 24 h, normalized to 3 μM reference compound with anti-CD3 plus anti-CD28 as 100% activation
[5] = Homo sapiens, 24 h, anti-CD3 plus anti-CD28, 24 hours, 3 μM reference compound = 100% activation
[6] = anti-CD3 plus anti-CD28, 24 hours, 3 μM reference compound = 100% activation
[7] = normalized to 3 μM reference compound with anti-CD3 plus anti-CD28 as 100% activation

T1 sequence (P23743 with tags, fused parts or gaps): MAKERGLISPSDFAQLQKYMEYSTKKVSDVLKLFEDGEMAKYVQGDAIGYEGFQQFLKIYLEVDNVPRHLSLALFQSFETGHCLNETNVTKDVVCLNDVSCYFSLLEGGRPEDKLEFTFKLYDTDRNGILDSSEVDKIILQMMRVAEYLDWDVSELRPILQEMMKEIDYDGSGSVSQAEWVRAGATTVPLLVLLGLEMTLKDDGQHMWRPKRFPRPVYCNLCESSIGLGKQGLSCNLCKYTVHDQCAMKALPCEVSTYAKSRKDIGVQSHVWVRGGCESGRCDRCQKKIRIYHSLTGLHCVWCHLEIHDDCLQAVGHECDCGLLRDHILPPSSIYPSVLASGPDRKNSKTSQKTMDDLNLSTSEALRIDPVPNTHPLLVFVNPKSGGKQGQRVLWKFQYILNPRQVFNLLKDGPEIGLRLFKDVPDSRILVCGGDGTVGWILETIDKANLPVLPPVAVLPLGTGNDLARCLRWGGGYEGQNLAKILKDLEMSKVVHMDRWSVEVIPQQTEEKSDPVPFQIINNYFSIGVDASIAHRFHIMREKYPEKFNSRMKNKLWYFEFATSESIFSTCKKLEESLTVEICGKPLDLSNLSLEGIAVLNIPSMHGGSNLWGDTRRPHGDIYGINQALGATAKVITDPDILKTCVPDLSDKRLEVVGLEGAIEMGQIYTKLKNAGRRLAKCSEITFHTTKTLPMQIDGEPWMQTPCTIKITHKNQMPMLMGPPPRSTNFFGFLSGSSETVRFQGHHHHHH
T2 sequence (Q13574 with tags, fused parts or gaps isoform Q13574-4): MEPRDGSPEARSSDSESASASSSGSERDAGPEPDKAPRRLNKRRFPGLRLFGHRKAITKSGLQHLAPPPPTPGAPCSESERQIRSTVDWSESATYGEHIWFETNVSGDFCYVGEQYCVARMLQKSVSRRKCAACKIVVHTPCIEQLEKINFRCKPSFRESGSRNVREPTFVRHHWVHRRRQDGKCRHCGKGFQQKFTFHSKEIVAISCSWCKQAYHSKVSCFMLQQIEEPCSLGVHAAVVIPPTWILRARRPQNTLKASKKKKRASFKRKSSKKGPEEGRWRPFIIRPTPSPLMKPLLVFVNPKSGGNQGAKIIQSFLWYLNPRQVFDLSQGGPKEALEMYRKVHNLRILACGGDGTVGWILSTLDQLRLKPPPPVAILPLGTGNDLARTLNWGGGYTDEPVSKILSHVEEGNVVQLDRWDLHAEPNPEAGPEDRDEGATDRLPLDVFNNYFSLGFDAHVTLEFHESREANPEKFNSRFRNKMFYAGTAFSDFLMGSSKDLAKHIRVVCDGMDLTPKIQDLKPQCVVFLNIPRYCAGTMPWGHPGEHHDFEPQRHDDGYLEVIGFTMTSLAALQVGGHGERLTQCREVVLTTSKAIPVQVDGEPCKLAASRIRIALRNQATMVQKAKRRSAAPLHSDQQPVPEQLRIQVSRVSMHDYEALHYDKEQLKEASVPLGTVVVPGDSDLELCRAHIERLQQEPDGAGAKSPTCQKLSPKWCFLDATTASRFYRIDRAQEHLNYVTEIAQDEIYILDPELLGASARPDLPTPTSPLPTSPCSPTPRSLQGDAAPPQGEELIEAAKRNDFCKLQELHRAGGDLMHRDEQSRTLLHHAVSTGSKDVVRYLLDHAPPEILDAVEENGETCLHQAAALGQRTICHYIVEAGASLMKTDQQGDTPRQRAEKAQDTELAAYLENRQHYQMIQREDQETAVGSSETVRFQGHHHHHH

| Structure (SMILES) | IC50 ([1]; liposome (LIPGLO) assay) [nM] | IC50 ([2]; liposome (LIPGLO) assay) [nM] | IC50 ([1]; DGKα liposome (LIPGLO) assay) [nM] | IC50 ([2]; DGKζ liposome (LIPGLO) assay) [nM] | EC50 [3, 4] [nM] | EC50 [3, 5] [nM] | EC50 [3, 6] [nM] | EC50 [3, 7] [nM] |
| --- | --- | --- | --- | --- | --- | --- | --- | --- |
| C[C@@H]1CN(c2cc(=O)n(C)c3ccc(C#N)nc23)[C@@H](C)CN1C(c1ccc(F)cc1)C(F)(F)CO (single isomer, unassigned) [Example 1311] | 120000 | 19000 |  |  | 11000 |  |  |  |
| CC(c1ccccc1OC(F)(F)F)N1C[C@H](C)N(c2cc(=O)n(C)c3ccc(C#N)nc23)C[C@H]1C (single isomer, unassigned) [Example 1213] | 56000 | 3600 |  |  |  |  |  | 8400 |
| CC(c1cc(OC(F)(F)F)ccc1F)N1C[C@H](C)N(c2cc(=O)n(C)c3ccc(C#N)nc23)C[C@H]1C (stereo partly drawn) [Example 1203] | 3000 | 1600 |  |  |  |  |  | 20000 |
| C[C@@H]1CN(c2cc(=O)n(C)c3ccc(C#N)nc23)[C@@H](C)CN1C(c1ccc(F)cc1)c1cccc(F)c1 (stereo partly drawn) [Example 293, 8-[(2S,5R)-4-[(3-fluorophenyl)(4-fluorophenyl)methyl]-2,5-dimethylpiperazin-1-yl]-5-methyl-6-oxo-5,6-dihydro-1,5-naphthyridine-2-carbonitrile] | 330 | 160 |  |  |  |  |  | 460 |
| CC[C@H]1CN(C(c2ccc(F)cc2)c2nc(C3CC3)cs2)[C@H](CC)CN1c1cc(=O)n(C)c2ccc(C#N)nc12 (stereo partly drawn) [Example 1067] | 79 | 47 |  |  | 11 |  |  |  |
| CC[C@@H]1CN(c2cc(=O)n(C)c3ccc(C#N)nc23)[C@@H](C)CN1Cc1ccc(C(F)(F)F)cc1C(F)(F)F [Example 1197] | 9500 | 1600 |  |  | 3500 |  |  |  |
| COC[C@@H]1CN(c2cc(=O)n(C)c3ccc(C#N)nc23)[C@@H](C)CN1C(c1ccc(F)cc1)c1ccon1 (single isomer, unassigned) [Example 1399] | 160 | 450 |  |  |  |  |  | 3000 |
| CCOC[C@@H]1CN(c2cc(=O)n(C)c3ccc(C#N)nc23)[C@@H](C)CN1C(c1ccc(F)cc1)c1ccc(C(F)(F)F)cn1 (stereo partly drawn) [Example 1404] | 900 | 50 |  |  |  |  |  | 900 |
| COc1cc(F)c(CN2C[C@H](C)N(c3cc(=O)n(C)c4ccc(C#N)nc34)C[C@H]2C)c(F)c1 [Example 1276] | 71 | 240 |  |  | 490 |  |  |  |
| C[C@@H]1CN(c2c(F)c(=O)n(C)c3ccc(C#N)nc23)[C@@H](C)CN1C(c1ccc(F)cc1)c1cccc(F)c1 (single isomer, unassigned) [Example 330] | 260 | 500 |  |  |  |  |  | 1200 |
| CCc1noc(C(c2ccc(F)cc2)N2C[C@H](C)N(c3cc(=O)n(C)c4ccc(C#N)nc34)C[C@H]2C)n1 (single isomer, unassigned) [Example 754] |  |  | 58 | 230 |  |  | 91 |  |
| C[C@@H]1CN(c2cc(=O)n(C)c3ccc(C#N)nc23)[C@@H](C)CN1C(c1ccc(F)cc1)c1ccc(P(C)(C)=O)cc1 (single isomer, unassigned) [Example 1292] | 8000 | 4100 |  |  | 12000 |  |  |  |
| COCc1cc(F)ccc1C(C)N1C[C@H](C)N(c2cc(=O)n(C)c3ccc(C#N)nc23)C[C@H]1C (single isomer, unassigned) [Example 1314] | 10000 | 49 |  |  | 460 |  |  |  |
| C[C@@H]1CN(c2c(F)c(=O)n(C)c3ccc(C#N)nc23)[C@@H](C)CN1C(c1ccc(F)cc1)c1ccccc1F (stereo partly drawn) [Example 334, 7-fluoro-8-((2S,5R)-4-((2-fluorophenyl)(4-fluorophenyl)methyl)-2,5-dimethylpiperazin-1-yl)-5-methyl-6-oxo-5,6-dihydro-1,5-naphthyridine-2-carbonitrile] | 500 | 560 |  |  |  |  |  | 1900 |
| CC(c1nc(C2CC2)cs1)N1C[C@H](C)N(c2cc(=O)n(C)c3ccc(C#N)nc23)C[C@H]1C (single isomer, unassigned) [Example 647] | 220 | 75 |  |  |  |  |  | 5200 |
| CC[C@H]1CN(C(C)c2cc(F)cc(OC(F)(F)F)c2)[C@H](C)CN1c1cc(=O)n(C)c2ccc(C#N)nc12 (stereo partly drawn) [Example 1385] | 5900 | 700 |  |  |  |  |  | 5300 |
| [2H]C(CC)(c1ccc(F)cc1)N1C[C@H](C)N(c2cc(=O)n(C)c3ccc(C#N)nc23)C[C@H]1C (single isomer, unassigned) [Example 575] | 180 | 1600 |  |  |  |  |  | 360 |
| CC(c1cc(C2CC2)on1)N1C[C@H](C)N(c2cc(=O)n(C)c3ccc(C#N)nc23)C[C@H]1C (single isomer, unassigned) [Example 1281] | 490 | 1100 |  |  |  |  |  | 1600 |
| CC[C@H]1CN(C(c2ccc(F)cc2)c2cscn2)[C@H](CC)CN1c1cc(=O)n(C)c2ccc(C#N)nc12 (single isomer, unassigned) [Example 1071] | 14 | 44 |  |  |  |  |  | 190 |

The next lines start with results.

| IC50 ([1]; liposome (LIPGLO) assay) [nM] | IC50 ([2]; liposome (LIPGLO) assay) [nM] | IC50 ([1]; DGKα liposome (LIPGLO) assay) [nM] | IC50 ([2]; DGKζ liposome (LIPGLO) assay) [nM] | Structure (SMILES) | EC50 [3, 4] [nM] | EC50 [3, 5] [nM] | EC50 [3, 6] [nM] | EC50 [3, 7] [nM] |
| --- | --- | --- | --- | --- | --- | --- | --- | --- |
|  |  | 4700 | 4900 | C[C@@H]1CN(c2c(C#N)c(=O)n(C)c3ccc(C#N)nc23)[C@@H](C)CN1C(c1ccc(F)cc1)c1ccc(C(F)(F)F)cn1 (single isomer, unassigned) [Example 836] |  | 1100 |  |  |
|  |  | 330 | 83000 | CC(c1ccc(Br)cc1)N1CCN(c2c(C#N)c(=O)n(C)c3ccc(C#N)nc23)C[C@H]1C (single isomer, unassigned) [Example 975] |  |  | 20000 |  |
| 1200 | 4100 |  |  | C[C@@H]1CN(c2c(F)c(=O)n(C)c3ccc(C#N)nc23)[C@@H](C)CN1C(c1ccc(Cl)cc1)c1ccc(OC(F)(F)F)cc1 (stereo partly drawn) [Example 324, 8-((2S,5R)-4-((4-chlorophenyl)(4-(trifluoromethoxy)phenyl)methyl)-2,5-dimethylpiperazin-1-yl)-7-fluoro-5-methyl-6-oxo-5,6-dihydro-1,5-naphthyridine-2-carbonitrile] |  |  |  | 4700 |
|  |  | 710 | 2700 | COc1ncccc1C(c1ccc(F)cc1)N1CCN(c2c(C#N)c(=O)n(C)c3ccc(C#N)nc23)C[C@H]1C (single isomer, unassigned) [Example 895] |  |  | 1800 |  |
|  |  | 510 | 5400 | C[C@@H]1CN(c2c(C#N)c(=O)n(C)c3ccc(C#N)nc23)[C@@H](C)CN1C(c1ccc(F)cc1)c1ccon1 (single isomer, unassigned) [Example 850] |  |  | 3600 |  |
| 21000 | 1000 |  |  | C[C@@H]1CN(C(c2ccc(F)cc2)c2ccc(Cl)cc2)[C@@H](CO)CN1c1cc(=O)n(C)c2ccc(C#N)nc12 (stereo partly drawn) [Example 1175] | 20000 |  |  |  |
| 730 | 940 |  |  | CC[C@H]1CN(C(c2ccc(F)cc2)c2ccc(Cl)cc2)[C@H](C)CN1c1cc(=O)n(C)c2ccc(C#N)nc12 (stereo partly drawn) [Example 1128] |  |  |  | 550 |
|  |  | 1200 | 2600 | Cc1ccc(C(C)N2C[C@H](C)N(c3c(C#N)c(=O)n(C)c4ccc(C#N)nc34)C[C@H]2C)cc1 (single isomer, unassigned) [Example 784] |  |  | 2000 |  |
| 4300 | 240 |  |  | C[C@@H]1CN(c2c(C#N)c(=O)n(C)c3ccc(C#N)nc23)CCN1C(c1ccc(F)cc1)c1ccnc(C(C)(C)C)n1 (stereo partly drawn) [Example 321, 8-((3R)-4-((2-(tert-butyl)pyrimidin-4-yl)(4-fluorophenyl)methyl)-3-methylpiperazin-1-yl)-5-methyl-6-oxo-5,6-dihydro-1,5-naphthyridine-2,7-dicarbonitrile] | 950 |  |  |  |
|  |  | 3300 | 7500 | C[C@@H]1CN(c2c(C#N)c(=O)n(C)c3ccc(C#N)nc23)CCN1C(c1ccc(F)cc1)c1cnn(C)c1 (stereo partly drawn) [Example 1016] |  | 3300 |  |  |
|  |  | 690 | 1200 | C[C@@H]1CN(c2c(C#N)c(=O)n(C)c3ccc(C#N)nc23)CCN1C(c1cccc(F)c1)c1ccc(F)cn1 (single isomer, unassigned) [Example 911] |  |  | 340 |  |
| 640 | 690 |  |  | CC[C@@H]1CN(c2cc(=O)n(C)c3ccc(C#N)nc23)[C@@H](C)CN1Cc1c(F)cc(F)cc1F [Example 1080] | 240 |  |  |  |
|  |  | 1200 | 8300 | C[C@@H]1CN(c2c(C#N)c(=O)n(C)c3ccc(C#N)nc23)CCN1Cc1ccc(Cl)cc1 [Example 1011] |  | 20000 |  |  |
|  |  | 4400 | 10000 | C[C@@H]1CN(c2c(C#N)c(=O)n(C)c3ccc(C#N)nc23)[C@@H](C)CN1C(c1ccc(F)cc1)c1ccc(F)cn1 (stereo partly drawn) [Example 827] |  |  | 1300 |  |
|  |  | 1300 | 24000 | CC(c1ccc(OC(F)(F)F)cc1)N1C[C@H](C)N(c2c(C#N)c(=O)n(C)c3ccc(C#N)nc23)C[C@H]1C (single isomer, unassigned) [Example 802] |  |  | 10000 |  |
| 52 | 450 |  |  | CC[C@@H]1CN(c2cc(=O)n(C)c3ccc(C#N)nc23)[C@@H](C)CN1C(C)c1ccc(C#N)cc1 (single isomer, unassigned) [Example 1346] |  |  |  | 6000 |
|  |  | 83000 | 11000 | C[C@@H]1CN(c2c(C#N)c(=O)n(C)c3ccc(C#N)nc23)[C@@H](C)CN1C(c1cccc(F)c1)c1ccc(C(F)(F)F)cn1 (single isomer, unassigned) [Example 841] |  |  | 3300 |  |
